Conditions in all cases: read-out: IZ
For one test, the system named is Escherichia coli. Nature of the test: Antibacterial activity against Escherichia coli at 50 ug after 48 hrs by agar well diffusion assay. The class given is functional. For orientation: Agar diffusion results depend on both activity and mobility in agar.
The subject of the next test is Aspergillus niger. Nature of the test: Antifungal activity against Aspergillus niger at 50 ug after 48 hrs by agar well diffusion assay. The class given is functional.
The next test relates to Candida albicans. Nature of the test: Antifungal activity against Candida albicans at 50 ug after 48 hrs by agar well diffusion assay. The class given is functional.
Test [1] has as its system Bacillus cirroflagellosus. Briefly: Antibacterial activity against Bacillus cirroflagellosus at 50 ug after 48 hrs by agar well diffusion assay.

Structures are written as SMILES.

With `O=NN(CC(=O)N/N=C\C=N\NC(=O)CN(N=O)c1ccccc1)c1ccccc1`, the zone of inhibition at 50 µg/disc in the test with Escherichia coli was found to be 16.3 mm; in the test on Aspergillus niger, 16.7 mm; with Candida albicans, 19.3 mm; in test [1] it was 16 mm.
Regarding `COC1=CC(=O)C[C@@H](C)[C@]12Oc1c(Cl)c(OC)cc(OC)c1C2=O` [GRISEOFULVIN], the values for the zone of inhibition at 50 µg/disc with Aspergillus niger and in the test with Candida albicans were 29 mm and 29.3 mm, respectively.
With `CCn1cc(C(=O)O)c(=O)c2cc(F)c(N3CCNCC3)cc21` [NORFLOXACIN], the zone of inhibition at 50 µg/disc (in the test on Escherichia coli; in test [1]) was 28.3 mm throughout.
